{"source": "patent US20140193370A1", "about": "“METHODS AND COMPOSITIONS FOR PROMOTING LEAN BODY MASS GROWTH” (NESTEC SA, priority 2011, published 2014)", "system": "adult dogs", "test": "Chronic oral OEA in the diet of dogs fed 25% more than MER; body weight gain and body composition by DEXA", "format": "in vivo, dog", "excerpt": "The physiological effects of regular oral OEA administration were investigated. OEA was provided as a supplement to dogs for […] to study the effect on body weight gain and body composition. Eighteen adult dogs participated in the study. Males with less than 17.5% body fat and females with less than 20% body fat were selected. Based on maintenance energy requirements (MER,) body weight and percentage of body fat, the dogs were randomly assigned into two groups. The control group (N=9) received a standard dry adult dog food (control diet without any OEA). The test group (N=9) received a selected dose of OEA incorporated into the standard diet. The dogs were fed 25% more than their MER for eight months. During the first four months, they received their ration in one meal per day. From month four to eight, they received their ration equally divided in two meals per day. Body weight was recorded weekly and dual X-ray absorptiometry (DEXA) scans were performed at baseline and every two months. Food intake was recorded daily. There was no difference in food consumption between groups (i.e., similar caloric intake).", "data": [{"molecule": "CCCCCCCC/C=C\\CCCCCCCC(=O)NCCO", "note": "[OEA, oleoylethanolamide]", "values": [{"measurement": "Lean Gain (g/kg body weight gain)", "setting": "chronic oral OEA in diet, dogs, eight months, control diet 139", "value": 170, "unit": "g/kg body weight gain"}, {"measurement": "Fat Gain (g/kg body weight gain)", "setting": "chronic oral OEA in diet, dogs, eight months, control diet 1333", "value": 853, "unit": "g/kg body weight gain"}, {"measurement": "more lean body mass gained per kilogram of body weight gain than dogs fed the control diet", "setting": "eight month study, OEA containing diet vs control diet", "value": 22, "unit": "%"}, {"measurement": "more fat gained per kilogram of body weight gain by dogs fed the control diet than by dogs fed the OEA containing diet", "setting": "eight month study, control diet vs OEA containing diet", "value": 56, "unit": "%"}, {"measurement": "body fat", "setting": "end of eight month study, dogs fed 25% more than MER, OEA incorporated into standard diet, control diet 16.0%", "value": 14.8, "unit": "%"}, {"measurement": "gain in lean body mass", "setting": "end of eight month study, dogs fed 25% more than MER, OEA incorporated into standard diet, control diet 236.9 g", "value": 446.7, "unit": "g"}, {"measurement": "food consumption (caloric intake) vs control group", "setting": "food intake recorded daily, OEA diet group vs control diet group", "value": "no difference"}]}]}
